Data: the supplement of paper PMC11061612

Assays:
[1] = tested on: OV-56 (Ovarian Carcinoma); assay: Bliss excess, mean over the matrix (fraction); higher = more synergy
Procedure, shortened: (§1)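 Cell lines in DMEM/F12 or RPMI with 10% FBS were plated in 1536-well plates, held 24 hours at 37°C, 5% CO2, then given two-drug dose matrices for 72 hours (DMSO typically 0.2%). Viability was read by CellTiter-Glo 2.0 luminescence and scaled as inhibition from 0 (vehicle wells) to 1 (blank wells). Combination Emax is the second-highest inhibition in the matrix; Bliss excess is observed combination effect minus expected EA + EB − EA·EB, EA and EB being single-agent effects.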

[2] = tested on: HeLa (Cervical Carcinoma); assay: as above
Procedure, shortened: as §1

NCI-H2722 (Mesothelioma) = assay: as above
Procedure, shortened: as §1

[3] = tested on: NCI-H720 (Other Solid Carcinomas); assay: as above
Procedure, shortened: as §1

[4] = tested on: BE-13 (T-Lymphoblastic Leukemia); assay: as above
Procedure, shortened: as §1

MPP-89 (Mesothelioma) = assay: as above
Procedure, shortened: as §1

[5] = tested on: NCI-H209 (Small Cell Lung Carcinoma); assay: as above
Procedure, shortened: as §1

[6] = tested on: KYAE-1 (Esophageal Adenocarcinoma); assay: as above
Procedure, shortened: as §1

[7] = tested on: SNU-16 (Gastric Carcinoma); assay: as above
Procedure, shortened: as §1

[8] = tested on: NCI-H720 (Other Solid Carcinomas); assay: combination Emax (second highest fraction inhibited in the dose matrix, 72 h); higher = more inhibition; extreme values may be limits of the assay
Procedure, shortened: as §1
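Throughout, for Bliss excess, mean over the matrix: after 72 h of two-drug dosing.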

**Q.** Cc1cc2ncnn2cc1Nc1ncc2c(n1)n(C1CCOCC1)c(=O)n2C [AZD7648] + C=CCn1c(=O)c2cnc(Nc3ccc(N4CCN(C)CC4)cc3)nc2n1-c1cccc(C(C)(C)O)n1 [AZD1775] (first compound max 10 µM, partner max 1 µM) was tested. Which Bliss excess [1] did it give?
**A.** 0.0602

**Q.** What about the Bliss excess [2] of the same compound?
**A.** -0.0542

**Q.** And the Bliss excess (NCI-H2722 (Mesothelioma))?
**A.** 0.0033

**Q.** And the Bliss excess [3]?
**A.** -0.0899

**Q.** And the Bliss excess [4]?
**A.** 0.0217

**Q.** What about the Bliss excess (MPP-89 (Mesothelioma)) of the same compound?
**A.** 0.0215

**Q.** What about the Bliss excess [5] of the same compound?
**A.** -0.0177

**Q.** What about the Bliss excess [6] of the same compound?
**A.** -0.048

**Q.** What about the Bliss excess [7] of the same compound?
**A.** -0.0345

**Q.** What about the “combination Emax” value [8] of the same compound?
**A.** 0.601
